The subject of data set [1] is HepG2. The data set can be described thus: Induction of apoptosis in human HepG2 cells assessed as increase in Bax mRNA expression at antiproliferative IC50 by RT-PCR method. The format is functional, cell-based.
A short description of data set [2]: Antiproliferative activity against human K562 cells after 48 hrs by MTT assay. In kind it is functional, cell-based. The following applies: K562, 48 h.
Data set [3] concerns HepG2. The experiment in a line: Induction of apoptosis in human HepG2 cells assessed as increase in caspase-9 protein expression at 0.77 uM after 24 hrs by ELISA. The format is functional, cell-based.
Data set [4] is described as follows: Cytotoxicity against human WI38 cells assessed as reduction in cell viability after 48 hrs by MTT assay. In kind it is toxicity, cell-based, WI-38.
Data set [5] relates to HepG2. The experiment in a line: Induction of apoptosis in human HepG2 cells assessed as increase in caspase-3 protein expression at 0.77 uM after 24 hrs by ELISA. The format is functional, cell-based.
Data set [6] in a line: Antiproliferative activity against human HepG2 cells after 48 hrs by MTT assay. The format is functional, cell-based. The following applies: HepG2, 48 h.
Data set [7] deals with HepG2. The data set can be described thus: Induction of apoptosis in human HepG2 cells assessed as decrease in Bcl2 mRNA expression at antiproliferative IC50 by RT-PCR method. In kind it is functional, cell-based.
For data set [8], the system named is K562. The experiment in a line: Induction of apoptosis in human K562 cells assessed as increase in caspase-3 protein expression at 0.93 uM after 24 hrs by ELISA. In kind it is functional, cell-based.
The subject of data set [9] is K562. The experiment in a line: Induction of apoptosis in human K562 cells assessed as increase in Bax mRNA expression at antiproliferative IC50 by RT-PCR method. The format is functional, cell-based.
Data set [10] concerns K562. The data set can be described thus: Induction of apoptosis in human K562 cells assessed as increase in caspase-9 protein expression at 0.93 uM after 24 hrs by ELISA. In kind it is functional, cell-based.
Data set [11] concerns K562. The experiment in a line: Induction of apoptosis in human K562 cells assessed as decrease in Bcl2 mRNA expression at antiproliferative IC50 by RT-PCR method. The format is functional, cell-based.
For data set [12], the system named is K562. The experiment in a line: Induction of apoptosis in human K562 cells at 0.49 uM after 24 hrs by propidium iodide staining based flow cytometry (reference value: 0.8%). In kind it is functional.
Data set [13] can be described thus: Cell cycle arrest in human K562 cells assessed as accumulation at G1 phase at 0.49 uM after 24 hrs by propidium iodide staining based flow cytometry (reference value: 68.2%). In kind it is functional.
In data set [14] the test system is K562. The experiment in a line: Induction of apoptosis in human K562 cells assessed as increase in caspase-9 protein expression at 0.49 uM after 24 hrs by ELISA. The format is functional, cell-based.
A short description of data set [15]: Cell cycle arrest in human K562 cells assessed as accumulation at S phase at 0.49 uM after 24 hrs by propidium iodide staining based flow cytometry (reference value: 21.7%). In kind it is functional.
Data set [16] can be described thus: Cell cycle arrest in human K562 cells assessed as accumulation at G2 phase at 0.49 uM after 24 hrs by propidium iodide staining based flow cytometry (reference value: 9.3%). The format is functional.
The test system of data set [17] is K562. The experiment in a line: Induction of apoptosis in human K562 cells assessed as increase in caspase-3 protein expression at 0.49 uM after 24 hrs by ELISA. The format is functional, cell-based.
Data set [18] has as its system K562. The experiment in a line: Induction of apoptosis in human K562 cells assessed as increase in caspase-3 protein expression at 1.24 uM after 24 hrs by ELISA. In kind it is functional, cell-based.
The test system of data set [19] is K562. The data set can be described thus: Induction of apoptosis in human K562 cells assessed as increase in caspase-9 protein expression at 1.24 uM after 24 hrs by ELISA. The format is functional, cell-based.
Data set [20] deals with HepG2. The data set can be described thus: Induction of apoptosis in human HepG2 cells at 0.65 uM after 24 hrs by propidium iodide staining based flow cytometry (reference value: 1.2%). In kind it is functional.
The test system of data set [21] is HepG2. The data set can be described thus: Induction of apoptosis in human HepG2 cells assessed as increase in caspase-3 protein expression at 0.65 uM after 24 hrs by ELISA. In kind it is functional, cell-based.
Data set [22] deals with HepG2. The experiment in a line: Induction of apoptosis in human HepG2 cells assessed as increase in caspase-9 protein expression at 0.65 uM after 24 hrs by ELISA. In kind it is functional, cell-based.
The nature of data set [23]: Cell cycle arrest in human HepG2 cells assessed as accumulation at G2 phase at 0.65 uM after 24 hrs by propidium iodide staining based flow cytometry (reference value: 7.2%). The format is functional.
Data set [24] is described as follows: Cell cycle arrest in human HepG2 cells assessed as accumulation at S phase at 0.65 uM after 24 hrs by propidium iodide staining based flow cytometry (reference value: 25.2%). The format is functional.
Data set [25] in a line: Cell cycle arrest in human HepG2 cells assessed as accumulation at G1 phase at 0.65 uM after 24 hrs by propidium iodide staining based flow cytometry (reference value: 66.4%). The format is functional.
In data set [26] the test system is K562. The data set can be described thus: Induction of apoptosis in human K562 cells assessed as increase in caspase-9 protein expression at 1.21 uM after 24 hrs by ELISA. The format is functional, cell-based.
Data set [27] relates to K562. The experiment in a line: Induction of apoptosis in human K562 cells assessed as increase in caspase-3 protein expression at 1.21 uM after 24 hrs by ELISA. The format is functional, cell-based.

Activity and IC50 data for twelve molecules are collected here from ChEMBL document CHEMBL3875211, “Design and synthesis of new coumarin hybrids and insight into their mode of antiproliferative action” (Bioorg Med Chem, 2017).

Activity calls are given as the source filed them. The rule behind the calls is not given here.

For the molecule `COc1ccc(/C=C(\C#N)C(=O)N/N=C(\C)c2cc3cccc(OC)c3oc2=O)cc1`, the result in data set [1], in [3], in [5] and in data set [7] was Active. Moreover, the IC50 in data set [2] turned out to be 3.96 µM; in [6], 0.77 µM. Besides, the IC50 at 48 h in data set [4] turned out to be 48.4 µM.

Consider `COc1ccc(/C=C(\C#N)C(=O)N/N=C(\C)c2cc3cccc(OC)c3oc2=O)cc1OC`, for which the figures for the IC50 in data set [2] and in data set [6] were 8.71 µM and 0.93 µM, respectively. The IC50 at 48 h in data set [4] worked out at 3.3 µM.

With `COc1cc(/C=C/C(=O)c2cc3cccc(OC)c3oc2=O)cc(OC)c1OC`, the IC50 worked out at 1.36 µM in [2] and 2.02 µM in data set [6]. Moreover, the IC50 at 48 h in [4] is 9.55 µM.

On to `COc1ccc(C[C@@H](O)c2cc(OC)c(OC)c(OC)c2)cc1O` [COMBRETASTATIN], for which the IC50 came to 3.46 µM in data set [2] and 3.4 µM in data set [6].

As for `COc1ccc(/C=C/C(=O)c2cc3cccc(OC)c3oc2=O)cc1OC`, the outcome in data set [8], in [9], in data set [10] and in data set [11] was Active. Also, the IC50 was 0.93 µM in data set [2] and 0.82 µM in data set [6]. Moreover, the IC50 at 48 h in [4] was found to be 33.1 µM.

For `COc1cc(/C=C(\C#N)C(=O)N/N=C(\C)c2cc3cccc(OC)c3oc2=O)cc(OC)c1OC`, the Activity worked out at 9.7% in data set [12], 44.6% in data set [13], 30.2% in [15] and 15.5% in data set [16]. The outcome in data set [14], in data set [9], in data set [11] and in data set [17] was Active. For the same molecule, the IC50 in data set [2] was found to be 0.49 µM; in data set [6], 1.57 µM. The IC50 at 48 h in [4] is 11.1 µM.

`COc1cccc2cc(-c3ccc(C(C)=O)c(C)n3)c(=O)oc12`: the result in [18] and in [19] was Active. Also, the IC50 worked out at 1.24 µM in data set [2] and 9.1 µM in data set [6]. In addition, the IC50 at 48 h in data set [4] was 354 µM.

With `COc1ccc(-c2cc(-c3cc4cccc(OC)c4oc3=O)nc(C#N)c2N)cc1OC`, the IC50 in data set [2] was found to be 1.61 µM; in data set [6], 3.2 µM. Moreover, the IC50 at 48 h in data set [4] was 36.1 µM.

With `CCOC(=O)c1ccc(-c2cc3cccc(OC)c3oc2=O)nc1C`, the IC50 in data set [2] amounted to 8.82 µM; in data set [6], 4.92 µM. For the same molecule, in data set [4], the IC50 at 48 h amounted to 67.7 µM.

In the case of `COc1ccc(/C=C/C(=O)c2cc3cccc(OC)c3oc2=O)cc1`, the Activity in data set [20] was found to be 16.3%; in data set [23] it was 19.1%; in [24], 28.8%; in data set [25], 35.8%. The outcome in [1], in [21], in [22] and in data set [7] was Active. Moreover, the figures for the IC50 in [2] and in [6] were 1.09 µM and 0.65 µM, respectively. Also, the IC50 at 48 h in data set [4] is 293 µM.

Turning to `COc1ccc(-c2cc(-c3cc4cccc(OC)c4oc3=O)nc(C#N)c2N)cc1`, the outcome in data set [26] and in data set [27] was Active. The figures for the IC50 in [2] and in data set [6] were 1.21 µM and 1.25 µM, respectively. Besides, the IC50 at 48 h in data set [4] amounted to 8.66 µM.

Regarding `COc1cccc2c1C(=O)c1c(O)c3c(c(O)c1C2=O)C[C@@](O)(C(=O)CO)C[C@@H]3O[C@H]1C[C@H](N)[C@H](O)[C@H](C)O1` [DOXORUBICIN], the results for the IC50 in [2] and in [6] were 2.96 µM and 4.93 µM, respectively.
